Source: US12168673B2 (Mitopower, Inc., priority 2022, dated 2024)

Experiments:
[1] = Stability in solutions (pH range, simulated gastric fluid, simulated intestinal fluid); format: physicochemical
Experimental: 1 mg/ml solutions of compound 100 were prepared in each buffer, diluted to 0.1 mg/ml in methanol at each time point and analyzed as follows: Gemini C-18, 250×4.6 mm, 5 im, Mobile Phase: Methanol Isocratic Flow Rate: 0.4 mL/min.

Jurkat Cells = test: Cellular NAD+ levels in Jurkat cells (LCMS/MS); format: cell-based; conditions: 30 μM, four hours of incubation
Experimental: Compounds 100, 101 and 102 were weighted out to prepare 60 μM stock solutions in RPMI media. 200 ng/mL solution of Rac-tenofovir d6 (Vivan Life-Sciences) was prepared in methanol (MeOH) and placed at −20° C. until use.
Jurkat Cells, sourced from NCCS Pune, were cultured in RPMI media containing FBS & Antibiotics. Cells from different flasks (90% confluent) were pooled into a 15 mL conical tube and centrifuged for 5 mins at 1200 rpm for 5 mins. The supernatant solution was discarded, and the pellet was washed with 5 mL sterile PBS (without Ca^2+ & Mg^2+). The tube was then centrifuged at 1200 rpm for 5 mins and the supernatant was discarded. The cell pellet was resuspended in 7 mL of RPMI media, and a cell count was done using 10 uL of the cell solution. 1.5 million cells from the cell solution were seeded into 1.5 mL microcentrifuge tubes. […] The tubes were placed in racks and gently swirled to mix the compounds into the media containing the cells. These tubes were then incubated for 4 hours in a 37° C. incubator at 5% CO2. After 4 hours of incubation the cells were spun down at 1000 rpm for 10 mins, the supernatant was discarded carefully, and cells were snap frozen in liquid nitrogen. When the samples were run, the extraction of the cells was on ice, cells were lysed using 20 uL deionized water and then ice cold 80% methanol containing the internal standard—Rac-Tenofovir D was added. The tubes were then vortexed at 2500 rpm for 8 minutes and then centrifuged at […] for 10 minutes. 150 uL of the supernatant was carefully transferred to HPLC vials and was analyzed for NAD^+ on the Abscised 4000 Q Trap LCMS/MS system. A C18, 3.5 μm, 2.1×100 mm, Bridge Column was used in the LC. The mobile phase consisted of 10 mM ammonium acetate with 0.1% acetic acid and 0.1% hexylamine as Solvent-A and 10 mM Ammonium acetate with 0.1% acetic acid and 0.1% hexylamine in 95/5 MeOH/H2O as Solvent-B. The gradient used was 0 mins-0.0% B, 0.5 mins-100% B, 1.5 mins-100% B, 3.0 mins-100% B, 3.1 mins-0.0% B, 7.0-STOP. The column flow rate was 0.5 mL/min. The sample injection volume was […].

[2] = Solid state stability (purity by UPLC); format: physicochemical
Experimental: Compounds 100, 101 and 102 were kept in glass vials at three different locations at temperatures of […], 2-8° C. and −20° C. in order to assess solid state stability at room temperature, refrigerated conditions and in a deep freezer. The compounds from these vials were assessed for purity by UPLC at three different timepoints 0 hrs, 24 hrs and 48 hrs. Table 2 depicts the results obtained for solid state stability at 25° C., 2-8° C. and −20° C. respectively. Purity measurements were made at 0 hrs, 24 hours and 48 hours.

[3] = Human hepatocyte clearance; format: in vitro ADME; conditions: human hepatocytes
How it was run: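 Cryopreserved human hepatocytes at a 2 million cell working stock mixed 1:1 with 2 μM compound working stock at 37 °C, in duplicate. Samples quenched in acetonitrile with internal standard at 0, 15, 30, 60 and 90 min, then analysed by LC-MS/MS.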

## O=C(OC1O[C@H](CO)[C@@H](O)[C@H]1O)c1cccnc1 (stereo partly drawn) [Compound 100, (3R, 4S, 5R)-3,4-dihydroxy-5-(hydroxymethyl) tetrahydrofuran-2-yl nicotinate]
[1]; SGF (simulated gastric fluid), 0 h
  % remaining: 100.0%
[1]; SGF (simulated gastric fluid), 1 week
  % remaining: 43.4%
[1]; SGF (simulated gastric fluid), 1 h
  % remaining: 99.1%
[1]; SGF (simulated gastric fluid), 2 h
  % remaining: 89.2%
[1]; SGF (simulated gastric fluid), 4 h
  % remaining: 79.6%
[1]; SGF (simulated gastric fluid), 8 h
  % remaining: 65.4%
[1]; SGF (simulated gastric fluid), 24 h
  % remaining: 71.7%
[1]; SGF (simulated gastric fluid), 48 h
  % remaining: 55.0%
[1]; SIF (simulated intestinal fluid), 0 h
  % remaining: 100.0%
[1]; SIF (simulated intestinal fluid), 1 week
  % remaining: 30.7%
[1]; SIF (simulated intestinal fluid), 1 h
  % remaining: 76.4%
[1]; SIF (simulated intestinal fluid), 2 h
  % remaining: 64.5%
[1]; SIF (simulated intestinal fluid), 4 h
  % remaining: 41.4%
[1]; SIF (simulated intestinal fluid), 8 h
  % remaining: 40.5%
[1]; SIF (simulated intestinal fluid), 24 h
  % remaining: 36.7%
[1]; SIF (simulated intestinal fluid), 48 h
  % remaining: 38.7%
[1]; pH 1, 0 h
  % remaining: 100.0%
[1]; pH 1, 1 week
  % remaining: 46.5%
[1]; pH 1, 1 h
  % remaining: 100.9%
[1]; pH 1, 2 h
  % remaining: 104.8%
[1]; pH 1, 4 h
  % remaining: 80.7%
[1]; pH 1, 8 h
  % remaining: 49.0%
[1]; pH 1, 24 h
  % remaining: 53.0%
[1]; pH 1, 48 h
  % remaining: 45.6%
[1]; pH 2, 0 h
  % remaining: 100.0%
[1]; pH 2, 1 week
  % remaining: 31.9%
[1]; pH 2, 1 h
  % remaining: 91.9%
[1]; pH 2, 2 h
  % remaining: 93.8%
[1]; pH 2, 4 h
  % remaining: 93.0%
[1]; pH 2, 8 h
  % remaining: 54.8%
[1]; pH 2, 24 h
  % remaining: 28.6%
[1]; pH 2, 48 h
  % remaining: 36.0%
[1]; pH 4, 0 h
  % remaining: 100.0%
[1]; pH 4, 1 week
  % remaining: 45.4%
[1]; pH 4, 1 h
  % remaining: 95.7%
[1]; pH 4, 2 h
  % remaining: 99.2%
[1]; pH 4, 4 h
  % remaining: 97.9%
[1]; pH 4, 8 h
  % remaining: 49.0%
[1]; pH 4, 24 h
  % remaining: 42.3%
[1]; pH 4, 48 h
  % remaining: 42.9%
[1]; pH 6, 0 h
  % remaining: 100.0%
[1]; pH 6, 1 week
  % remaining: 48.1%
[1]; pH 6, 1 h
  % remaining: 92.0%
[1]; pH 6, 2 h
  % remaining: 86.4%
[1]; pH 6, 4 h
  % remaining: 70.9%
[1]; pH 6, 8 h
  % remaining: 50.4%
[1]; pH 6, 24 h
  % remaining: 55.1%
[1]; pH 6, 48 h
  % remaining: 47.7%
[1]; pH 7.4, 0 h
  % remaining: 100.0%
[1]; pH 7.4, 1 week
  % remaining: 34.2%
[1]; pH 7.4, 1 h
  % remaining: 57.1%
[1]; pH 7.4, 2 h
  % remaining: 41.1%
[1]; pH 7.4, 4 h
  % remaining: 37.5%
[1]; pH 7.4, 8 h
  % remaining: 46.3%
[1]; pH 7.4, 24 h
  % remaining: 46.0%
[1]; pH 7.4, 48 h
  % remaining: 36.6%
[1]; pH 9, 0 h
  % remaining: 100.0%
[1]; pH 9, 1 week
  % remaining: 9.2%
[1]; pH 9, 1 h
  % remaining: 17.7%
[1]; pH 9, 2 h
  % remaining: 7.8%
[1]; pH 9, 4 h
  % remaining: 7.6%
[1]; pH 9, 8 h
  % remaining: 7.5%
[1]; pH 9, 24 h
  % remaining: 6.6%
[1]; pH 9, 48 h
  % remaining: 8.1%
Jurkat Cells
  NAD+ level increase compared to untreated cells: showed statistical significance in terms of NAD^+ level increases
[2]; 2-8° C., 0 hr
  Solid State Stability (% Purity): 96.29%
[2]; 2-8° C., 24 hr
  Solid State Stability (% Purity): 96.32%
[2]; 2-8° C., 48 hr
  Solid State Stability (% Purity): 96.28%
[2]; 25° C., 0 hr
  Solid State Stability (% Purity): 96.02%
[2]; 25° C., 24 hr
  Solid State Stability (% Purity): 96.23%
[2]; 25° C., 48 hr
  Solid State Stability (% Purity): 96.22%
[2]; −20° C., 0 hr
  Solid State Stability (% Purity): 96.33%
[2]; −20° C., 24 hr
  Solid State Stability (% Purity): 96.32%
[2]; −20° C., 48 hr
  Solid State Stability (% Purity): 96.49%
[3]
  half-life at 1 μM: 2.38 h
  hepatocyte CLint at 1 μM: 4.86 µL/min/1e6 cells
